Data taken from publication PMC4457528, “Identification of Novel Small Molecule Inhibitors of Oncogenic RET Kinase” (PLoS ONE, 2015).
Read-outs that look alike come from different tables or passages of the source.

What was measured:
Assay in all cases: KinomeScan kinase panel, single concentration 10 µM
Type in all cases: binding
KinomeScan kinase panel [1] = target: T1, KinomeScan kinase panel (Homo sapiens, UniProt P52333); details: 10 µM, read-out: score (%)
T1 construct: purchased DiscoveRx (KinomeScan)
T1 sequence (P52333 1-1124): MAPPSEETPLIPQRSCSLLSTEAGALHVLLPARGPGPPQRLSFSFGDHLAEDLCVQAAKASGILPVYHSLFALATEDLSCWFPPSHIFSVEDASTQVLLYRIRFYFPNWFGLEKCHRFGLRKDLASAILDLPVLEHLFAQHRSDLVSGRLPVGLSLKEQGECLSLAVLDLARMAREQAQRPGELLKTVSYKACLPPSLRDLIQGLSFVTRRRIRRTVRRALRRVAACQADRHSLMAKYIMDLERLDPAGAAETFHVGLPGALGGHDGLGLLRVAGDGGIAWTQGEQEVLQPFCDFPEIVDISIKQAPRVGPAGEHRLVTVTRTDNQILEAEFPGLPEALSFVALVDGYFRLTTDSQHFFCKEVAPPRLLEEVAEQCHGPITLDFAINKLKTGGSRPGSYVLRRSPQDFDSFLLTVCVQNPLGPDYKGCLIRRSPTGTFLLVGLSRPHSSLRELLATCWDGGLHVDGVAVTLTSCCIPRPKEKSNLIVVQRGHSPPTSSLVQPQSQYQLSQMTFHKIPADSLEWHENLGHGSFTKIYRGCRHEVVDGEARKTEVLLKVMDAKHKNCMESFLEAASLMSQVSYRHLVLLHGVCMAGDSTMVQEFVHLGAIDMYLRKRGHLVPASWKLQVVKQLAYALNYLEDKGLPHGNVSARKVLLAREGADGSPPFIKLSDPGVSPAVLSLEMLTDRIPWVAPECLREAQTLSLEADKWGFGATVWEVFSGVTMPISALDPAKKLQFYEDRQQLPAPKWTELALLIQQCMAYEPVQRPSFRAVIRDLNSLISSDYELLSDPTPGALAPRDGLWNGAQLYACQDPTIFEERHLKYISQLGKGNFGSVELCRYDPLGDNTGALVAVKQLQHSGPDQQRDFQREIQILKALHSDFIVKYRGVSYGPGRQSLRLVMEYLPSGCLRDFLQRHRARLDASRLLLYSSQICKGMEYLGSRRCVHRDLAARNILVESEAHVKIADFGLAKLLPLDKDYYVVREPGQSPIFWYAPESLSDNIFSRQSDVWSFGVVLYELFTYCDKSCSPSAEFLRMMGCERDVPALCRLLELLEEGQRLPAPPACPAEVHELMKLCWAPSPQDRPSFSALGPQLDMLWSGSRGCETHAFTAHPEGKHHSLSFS

KinomeScan kinase panel [2] = target: T2, KinomeScan kinase panel (Homo sapiens, UniProt P29597)
T2 construct: purchased DiscoveRx (KinomeScan)
T2 sequence (P29597 whole entry): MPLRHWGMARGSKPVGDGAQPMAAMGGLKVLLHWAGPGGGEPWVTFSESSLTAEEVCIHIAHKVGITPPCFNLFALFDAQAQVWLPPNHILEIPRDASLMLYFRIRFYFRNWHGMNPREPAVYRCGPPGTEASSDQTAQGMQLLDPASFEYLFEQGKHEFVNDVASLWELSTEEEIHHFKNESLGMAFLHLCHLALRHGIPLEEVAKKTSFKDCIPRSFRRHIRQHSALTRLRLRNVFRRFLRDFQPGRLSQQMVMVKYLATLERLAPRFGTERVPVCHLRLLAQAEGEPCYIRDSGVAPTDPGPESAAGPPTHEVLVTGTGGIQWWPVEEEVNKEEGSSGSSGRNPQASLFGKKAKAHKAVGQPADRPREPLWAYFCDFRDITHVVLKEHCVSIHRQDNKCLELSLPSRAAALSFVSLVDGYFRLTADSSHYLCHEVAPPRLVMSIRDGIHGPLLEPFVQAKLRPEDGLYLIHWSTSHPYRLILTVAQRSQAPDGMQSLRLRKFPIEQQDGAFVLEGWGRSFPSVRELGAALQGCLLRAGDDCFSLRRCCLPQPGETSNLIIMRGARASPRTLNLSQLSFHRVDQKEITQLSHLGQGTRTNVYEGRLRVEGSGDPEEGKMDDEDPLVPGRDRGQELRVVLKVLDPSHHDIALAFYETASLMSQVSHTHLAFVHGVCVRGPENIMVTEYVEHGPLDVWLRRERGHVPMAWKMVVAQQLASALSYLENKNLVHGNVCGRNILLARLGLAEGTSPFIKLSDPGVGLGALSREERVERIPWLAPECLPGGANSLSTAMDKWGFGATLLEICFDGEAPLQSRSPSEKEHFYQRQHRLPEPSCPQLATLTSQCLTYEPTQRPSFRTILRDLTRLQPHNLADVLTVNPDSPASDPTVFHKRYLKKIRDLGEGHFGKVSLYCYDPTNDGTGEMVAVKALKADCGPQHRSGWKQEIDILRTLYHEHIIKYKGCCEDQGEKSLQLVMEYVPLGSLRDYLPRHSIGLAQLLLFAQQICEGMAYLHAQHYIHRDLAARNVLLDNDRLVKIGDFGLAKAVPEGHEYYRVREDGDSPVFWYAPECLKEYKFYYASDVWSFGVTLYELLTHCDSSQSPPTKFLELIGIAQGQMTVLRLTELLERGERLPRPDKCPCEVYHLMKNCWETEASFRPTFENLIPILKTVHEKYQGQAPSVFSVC

KinomeScan kinase panel [3] = target: T3, KinomeScan kinase panel (Homo sapiens, UniProt P51812); details: 10 µM, read-out: score (%)
T3 construct: purchased DiscoveRx (KinomeScan)
T3 sequence (P51812 whole entry): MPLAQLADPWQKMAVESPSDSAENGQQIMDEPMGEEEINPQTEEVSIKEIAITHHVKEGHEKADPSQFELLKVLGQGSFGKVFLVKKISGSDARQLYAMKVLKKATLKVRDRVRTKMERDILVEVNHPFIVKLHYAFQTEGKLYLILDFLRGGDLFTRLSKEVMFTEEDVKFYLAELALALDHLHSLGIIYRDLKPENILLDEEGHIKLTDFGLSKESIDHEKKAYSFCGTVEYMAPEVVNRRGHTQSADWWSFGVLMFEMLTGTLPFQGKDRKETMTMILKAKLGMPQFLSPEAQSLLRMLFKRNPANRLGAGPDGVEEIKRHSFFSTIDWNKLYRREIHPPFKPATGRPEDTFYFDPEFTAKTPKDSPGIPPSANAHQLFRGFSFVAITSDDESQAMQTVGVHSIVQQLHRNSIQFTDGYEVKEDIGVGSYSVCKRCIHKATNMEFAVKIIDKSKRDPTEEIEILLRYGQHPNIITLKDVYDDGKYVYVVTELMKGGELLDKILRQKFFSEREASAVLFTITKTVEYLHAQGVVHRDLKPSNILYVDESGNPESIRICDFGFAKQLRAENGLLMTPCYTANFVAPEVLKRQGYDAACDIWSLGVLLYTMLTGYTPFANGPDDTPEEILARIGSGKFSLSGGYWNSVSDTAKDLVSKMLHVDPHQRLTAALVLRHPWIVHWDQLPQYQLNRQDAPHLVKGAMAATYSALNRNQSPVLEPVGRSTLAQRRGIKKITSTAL

KinomeScan kinase panel [4] = target: T4, KinomeScan kinase panel (Homo sapiens, UniProt P31751); details: AKT2, 10 µM; read-out: score (%)
T4 construct: purchased DiscoveRx (KinomeScan)
T4 sequence (P31751 whole entry): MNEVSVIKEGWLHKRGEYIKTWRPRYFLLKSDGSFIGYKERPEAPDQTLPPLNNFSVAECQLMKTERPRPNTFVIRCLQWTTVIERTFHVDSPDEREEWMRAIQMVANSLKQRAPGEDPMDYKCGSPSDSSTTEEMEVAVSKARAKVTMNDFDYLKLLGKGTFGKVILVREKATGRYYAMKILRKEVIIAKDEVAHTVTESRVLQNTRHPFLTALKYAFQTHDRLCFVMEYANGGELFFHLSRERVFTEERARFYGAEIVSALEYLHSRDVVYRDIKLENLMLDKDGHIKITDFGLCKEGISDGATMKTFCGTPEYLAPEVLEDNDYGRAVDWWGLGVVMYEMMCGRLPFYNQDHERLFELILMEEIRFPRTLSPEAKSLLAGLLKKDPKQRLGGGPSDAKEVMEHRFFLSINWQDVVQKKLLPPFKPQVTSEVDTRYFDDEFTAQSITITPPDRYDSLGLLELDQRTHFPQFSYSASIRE

KinomeScan kinase panel [5] = target: T5, KinomeScan kinase panel (Homo sapiens, UniProt P36896); details: ACVR1B, 10 µM; read-out: score (%)
T5 construct: purchased DiscoveRx (KinomeScan)
T5 sequence (P36896 24-505): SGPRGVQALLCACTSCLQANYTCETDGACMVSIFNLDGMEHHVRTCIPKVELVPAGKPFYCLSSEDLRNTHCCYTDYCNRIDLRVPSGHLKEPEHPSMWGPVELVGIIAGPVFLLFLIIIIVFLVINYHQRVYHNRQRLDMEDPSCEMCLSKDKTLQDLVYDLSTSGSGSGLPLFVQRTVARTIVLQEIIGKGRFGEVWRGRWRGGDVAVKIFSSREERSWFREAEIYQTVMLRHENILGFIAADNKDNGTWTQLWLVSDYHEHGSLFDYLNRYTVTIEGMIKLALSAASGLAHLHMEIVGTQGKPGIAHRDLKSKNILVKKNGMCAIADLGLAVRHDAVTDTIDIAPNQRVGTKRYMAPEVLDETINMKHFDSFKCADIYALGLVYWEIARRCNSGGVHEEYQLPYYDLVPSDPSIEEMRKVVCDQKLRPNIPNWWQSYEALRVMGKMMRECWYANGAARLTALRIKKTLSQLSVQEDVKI

KinomeScan kinase panel [6] = target: T6, KinomeScan kinase panel (Homo sapiens, UniProt Q96D53); details: ADCK4, 10 µM; read-out: score (%)
T6 construct: purchased DiscoveRx (KinomeScan)
T6 sequence (Q96D53 1-544): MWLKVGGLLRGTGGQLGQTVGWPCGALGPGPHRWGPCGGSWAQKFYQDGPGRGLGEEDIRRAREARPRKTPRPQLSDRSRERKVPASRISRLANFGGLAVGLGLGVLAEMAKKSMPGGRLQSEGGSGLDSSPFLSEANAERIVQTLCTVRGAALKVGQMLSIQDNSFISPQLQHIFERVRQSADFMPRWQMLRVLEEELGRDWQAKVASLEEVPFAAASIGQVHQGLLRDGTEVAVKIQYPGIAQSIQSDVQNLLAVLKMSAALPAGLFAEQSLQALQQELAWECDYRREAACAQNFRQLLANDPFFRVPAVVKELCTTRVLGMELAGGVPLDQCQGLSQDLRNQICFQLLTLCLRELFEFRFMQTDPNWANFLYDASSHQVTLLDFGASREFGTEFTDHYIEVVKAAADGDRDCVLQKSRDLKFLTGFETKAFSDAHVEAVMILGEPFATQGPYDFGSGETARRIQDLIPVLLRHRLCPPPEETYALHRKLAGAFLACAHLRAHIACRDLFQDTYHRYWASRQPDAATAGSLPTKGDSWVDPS

[7] = kinase TYK2(JH1domain-catalytic), 10 µM

| remaining binding at 10 µM (KinomeScan kinase panel [1]; JAK3(Kin.Dom.2)) [%] | score (%) (KinomeScan kinase panel [2]; kinase TYK2(Kin.Dom.2), 10 µM) | remaining binding at 10 µM (KinomeScan kinase panel [3]; RPS6KA3(Kin.Dom.1)) [%] | SMILES | remaining binding at 10 µM (KinomeScan kinase panel [1]; JAK3(JH1domain-catalytic)) [%] | score (%) (KinomeScan kinase panel [2]) | score (%) (KinomeScan kinase panel [2]; [7]) | remaining binding at 10 µM (KinomeScan kinase panel [3]; kinase RPS6KA3(Kin.Dom.1-N-terminal)) [%] | remaining binding at 10 µM (KinomeScan kinase panel [4]) [%] | remaining binding at 10 µM (KinomeScan kinase panel [5]) [%] | remaining binding at 10 µM (KinomeScan kinase panel [6]) [%] | score (%) (KinomeScan kinase panel [2]; kinase TYK2(Kin.Dom.1), 10 µM) | score (%) (KinomeScan kinase panel [2]; kinase TYK2(JH2domain-pseudokinase), 10 µM) | remaining binding at 10 µM (KinomeScan kinase panel [3]; kinase RSK2(Kin.Dom.1-N-terminal)) [%] |
| --- | --- | --- | --- | --- | --- | --- | --- | --- | --- | --- | --- | --- | --- |
| – | – | – | CCN1CCN(Cc2ccc(NC(=O)c3ccc(C)c(NC(=O)c4cncc(-c5cccs5)c4)c3)cc2C(F)(F)F)CC1 [ALW-II-41-27] | 3.7 | nb (Hits values higher than 30% were considered negative (no binding: nb)) | 9.8 | > 30 | > 30 | > 30 | > 30 | – | – | – |
| 3.5 | 7 | > 30 | CCN1CCN(Cc2ccc(NC(=O)c3ccc(C)c(/C=C/c4cnc5[nH]ccc5c4Cl)c3)cc2C(F)(F)F)CC1 [HG-6-63-01, (E)-3-(2-(4-chloro-1H-pyrrolo[2,3-b]pyridin-5-yl)vinyl)-N-(4-((4-ethylpiperazin-1-yl)methyl)-3-(trifluoromethyl)phenyl)-4-methylbenzamide] | – | – | – | – | > 30 | > 30 | > 30 | nb (Hits values higher than 30% were considered negative (no binding: nb)) | – | – |
| – | – | – | CCN1CCN(Cc2ccc(NC(=O)c3ccc(C)c(C#Cc4cccnc4)c3)cc2C(F)(F)F)CC1 [XMD15-44] | 2.3 | – | 4.2 | – | 30 | > 30 | > 30 | – | 99 | 16 |
